The test system of series [1] is mice. Nature of the series: Forced swimming test (FST), immobility time. The class given is in vivo. The note with it: for antidepressant effect: dose not given; for course of antidepressant efficacy within 7 days: 1 hour to 7 days. Here is the method: One hour before the forced swimming test (FST), the mice were transferred to the laboratory. The test was conducted under normal light condition and monitored by a digital camera. During the test, the mice were individually placed in transparent glass cylinders (28.5 cm in height, 14 cm in diameter) filled with 20 cm height of water (23±1° C.). On the first day, the mice were trained for 6 minutes and then removed from the cylinder. On the second day, the mice were administered saline, HNK, Compound I5, Compound C, and Compound D, and after different time periods, their immobility time was tested. During the last 4 minutes of the entire 6-minute swimming test, the static time was recorded through EthoVision XT (Noldus, Netherlands) of Noldus system. The static time was defined as passive floating, that is there was no other movement except the movements necessary to keep the animal’s head above the water. After every two to three tests, the water in the cylinders was replaced. After the swimming test, the mice were removed from the water and dried under an infrared lamp.
The mice were given 1 mg (A), 10 mg (B) and 30 mg (C) of HNK and Compund I5 by intragastric administration, respectively, and their immobility time was measured after 1 hour and 7 days. The percentage of immobility time is expressed as mean ± SEM. *p<0.05, **p<0.01, compared to base test. Mice of each group was N=8. Saline: saline group; I5: Compound I5 treatment group; HNK: 2R,6R-hydroxynorketamine treatment group.

For series [2], the system named is mice. Nature of the series: Behavioral sensitization experiment (spontaneous activity measurement). The class given is in vivo, Male C57BL/6J mice. The note with it: 5 mg, 10 mg, 30 mg intragastric once a day for 7 days, 7 days withdrawal, challenge on day 15. Here is the method:
(§1) Animals: Male C57BL/6J mice of 8-12 weeks old were randomly divided into groups, 10 mice in each group, with body weight of 18-22 g, fed at room temperature (22±1° C.), under humidity of (50±10)%, illumination time from 8:00 to20:00. The mice had free access to food and water, and adapted to the experimental environment for at least 2-3 days before the experiments. All experiments were conducted from 8:00 to 16:00.
1.1 Small animal spontaneous activity measurement: An animal spontaneous activity infrared analysis system consists of a spontaneous activity box, an infrared probe device and a data acquisition system. The size of the spontaneous activity box is 40 cm × 40 cm × 65 cm, with sound isolation and light isolation, and mounted with a ventilation device. The activity statuses of the animals were recorded by the infrared probe, and the numbers of spontaneous activities of the animals were calculated. In order to test the effect of drugs on spontaneous activities of mice, the mice were randomly divided into 4 groups with 10 mice in each group. The Groups included: vehicle, I5, C, D (5.0, 10.0, 30.0 mg/kg), mor (10 mg/kg). The mice were administrated intragastrically once a day in the morning for 7 consecutive days; after that, the drugs withdrew for 7 days (without any treatment). On the 15th day, mice in each group were given Veh and the drugs (5.0, 10.0, 30.0 mg/kg) by intragastric administration to stimulate. Spontaneous activity of the mice within 1 hour was measured immediately after administration at d1, d7 and d15.
Statistical analysis: Experimental data were expressed as X±SEM. Graphpad software was used for statistical analysis, and t-test was used for comparison between two groups. One-way ANOVA analysis was used for comparison among multiple groups, and then LSD method was used for pairwise comparison.

Series [3] has as its system mice. Nature of the series: Position preference (CPP) experiment, three-room system. The class given is in vivo, Male C57BL/6J mice. Conditions: 5 mg, 10 mg, 30 mg intragastric, 6 days training, residence time in white box within 15 min. Here is the method:
as §1
1.2 CPP experiment: A three-room CPP system includes black and white boxes (25 cm × 25 cm × 30 cm) at left and right sides, separated by a middle box (10 cm × 25 cm × 30 cm). During the experiment, mice were put into the middle box and could freely move to the black and white boxes. A door with the size of 5 cm × 5 cm was arranged between the middle box and each of the black and white boxes. The experiment adopted a biased procedure, which had three stages of pre-test, training, and test stages. During the whole experiment, the environmental conditions such as light, color and smell in the boxes were guaranteed to be consistent.
Pre-test stage: On days 1-3, the spacer plates between the boxes were removed, and all mice were put into the middle box after being injected with saline subcutaneously, allowing them to move freely in the boxes for 15 min, once a day for 3 consecutive days. The residence time of the mice in the black and white boxes was respectively recorded to determine the natural preference of the mice. The mice were trained with the non-natural preference box as the companion medicine box. […]
Test stage: on day 10, the spacer plates were removed, and the mice were put into the middle box allowing to move freely. At the same time, the residence time of the mice in the white box within 15 min were recorded.
Statistical analysis: Experimental data were expressed as X±SEM. […]
Position preference was tested by a three-room system. […] After continuous training for 6 days, the test was carried out, and the residence times of the mice within 15 min in the white box were recorded. […]

Series [4] in a line: Applicant's experimental studies on addiction of HNK (general statement). The class given is in vivo.
Setting [5] is: mice, 1 mg intragastric, measured after 1 hour and 7 days.

Structures are written as SMILES. “Also recorded” adds a separate entry of the source. Counter-ions that a name gives are not always drawn.

Turning to `N[C@]1(c2ccccc2Cl)CCC[C@H](OC(=O)c2ccc(CN3CCOCC3)cc2)C1=O` [Compound D], the “antidepressant effect (immobility time, forced swimming)” value in the series with mice [1] (mice, 30 mg) is “no antidepressant effect”. Moreover, the antidepressant effect entry in the series with mice [1] (mice) is recorded as “no antidepressant effect”. The “behavioral sensitization effect on mice” value in the series on mice [2] was “behavioral sensitizing effect; also recorded: behavioral sensitization effect”. Further, the “position preference effect on mice” value with mice [3] was “induced position preference”.
For the compound `N[C@@]1(c2ccccc2Cl)CCC[C@@H](O)C1=O` [HNK, (2R,6R)-6-hydroxydemethylketamine, reference compound], the “duration of efficacy after administration” value in the series with mice [1] (general statement) is recorded as “basically lost activity within one week”. The “antidepressant effect (immobility time, forced swimming)” value in the series on mice [1] (setting [5]) was “no antidepressant effect”; in the series with mice [1] (mice, 10 mg intragastric), “had antidepressant effect”; with mice [1] (mice, 30 mg), “had antidepressant effect”. Further, the “course of antidepressant efficacy within 7 days” value with mice [1] (mice, 10 mg intragastric) was “decreased rapidly within 7 days, and substantially had no effect on the 7th day”; with mice [1] (mice, 30 mg intragastric) it was “decayed rapidly within 7 days, and substantially had no effect on the 7th day”. In addition, the addiction entry in series [4] is given as “a certain degree of addiction”.
As for `CN(C)c1ccc(C(=O)O[C@@H]2CCC[C@@](N)(c3ccccc3Cl)C2=O)cc1` [Compound I5, (2R, 6R)-6-p-dimethylaminobenzoyloxydemethylketamine dihydrochloride], the “antidepressant effect (immobility time, forced swimming)” value was “no antidepressant effect” in the series on mice [1] (setting [5]); “had antidepressant effect” with mice [1] (mice, 10 mg intragastric); “had antidepressant effect” with mice [1] (mice, 30 mg). In addition, the “course of antidepressant efficacy within 7 days” value in the series with mice [1] (mice, 10 mg intragastric) is given as “substantially did not decrease within 7 days”; with mice [1] (mice, 30 mg intragastric) it was “substantially did not decrease within 7 days”. Also, in the series with mice [1] (mice, compared with HNK-treated group, 10 mg and 30 mg groups), the “antidepressant effect at the 7th day after administration (reduction in immobility time)” value was “significant antidepressant effect”. Further, the “behavioral sensitization effect on mice” value in the series on mice [2] (dihydrochloride) is recorded as “no behavioral sensitization effect; also recorded: non-sensitization effect”. Besides, the “position preference effect on mice” value with mice [3] (dihydrochloride) was “no position preference effect; also recorded: non-position preference effect”.
For the compound `CN[C@@]1(c2ccccc2Cl)CCC[C@@H](OC(=O)c2ccccc2)C1=O` [Compound C], the “antidepressant effect (immobility time, forced swimming)” value in the series on mice [1] (mice, 30 mg) was “no antidepressant effect”. The antidepressant effect entry in the series on mice [1] (mice) is recorded as “no antidepressant effect”. Besides, the “behavioral sensitization effect on mice” value in the series on mice [2] is given as “behavioral sensitizing effect; also recorded: behavioral sensitization effect”. Also, the “position preference effect on mice” value in the series on mice [3] is “induced position preference”.

The values are drawn from patent US20230303481A1, “LONG-ACTING LOW-ADDICTION HNK DERIVATIVE AND PREPARATION METHOD THEREFOR” (SHENZHEN RUIJIAN BIOTECHNOLOGY CO., LTD, priority 2020, published 2023).
